Results reported in patent US20260256716A1, “COMPOSITIONS AND METHODS OF USE THEREOF” (Board of Supervisors of Louisiana State University and …, priority 2023, published 2026).

Experiments:
Assay type in all cases: cell-based, human
[1] = tested on: phosphorylated myosin light chain; assay: Western blot of phosphorylated myosin light chain (MLC) in ARPE-19 cells under hyperglycemic conditions; details: ARPE-19, DMEM High glucose 7% FCS overnight; 10 nM; western blot
Protocol: A Hallmark of Age-Associated Ocular and Neurodegenerative Disorders is Cytoskeletal Alteration and Induction of CONTRACTILE Stress Fiber Formation. Expression and activation via phosphorylation of Myosin Light Chain (MLC), is a biomarker of disease development. ARPE-19 cells and ARPE-19 cells specifying 5-HT2AR knockouts were plated in nutrient rich media (DMEM; 7% FCS) overnight. Cells were fixed, permeabilized, and stained phalloidin and α-phosphorylated-Myosin light chain. Cytoskeletal elements were then visualized by fluorescent microscopy to visualize actin fiber cytoskeletal structures (phalloidin, red) and contractile phosphorylated myosin light chain (green) via fluorescent microscopy. […] ARPE-19 cells were cultured under hyperglycemic conditions in nutrient rich media (DMEM High glucose; 7% FCS) overnight either in the absence or presence of 5-HT2A receptor agonists R-DOI and 2CiBu at 10 nm or 100 nM concentrations. The relative expression of the activated disease biomarker contractile phosphorylated myosin light chain was determined using specific antibodies and western blot analysis. 5-HT2A agonists. […] Therefore, 5-HT2A agonism at low concentrations have the potential to prevent and reverse deleterious cytoskeletal events that can be induced under hyperglycemic conditions, such as in diabetics.
This can be consistent with 2C-iBu being able to regulate IOP and that 5HT2A agonists prevented edema formation and disruption of corneal architecture in a model of herpetic keratitis.

ARPE-19 cells = assay: SA-β-Gal cellular senescence in ARPE-19 cells in nutrient rich media (DMEM); details: 10 nM in starvation media overnight, then DMEM 7% FCS 72 hours
Protocol: ARPE-19 cells in nutrient rich media (DMEM; 7% FCS) were seeded overnight prior to being replaced with starvation media (DMEM; 0.5% FCS) containing 10 nM R-DOI or 10 nM M100,907. After overnight incubation in starvation media with drug, cells were swapped to DMEM 7% FCS media for 72-hours. After the 72-hour incubation, cells were fixed and stained for SA-β-Gal for 6-hours. Cells nuclei were then stained with DAPI for total-cell enumeration. SA-β-Gal positive cells, and total cells per frame, were quantified by microscopy.

ARPE cells = assay: Cumene hydroperoxide induced lipid peroxidation in ARPE cells (BODIPY); details: 100 nM and 1 nM overnight; 100 uM cumene hydroperoxide
Protocol: Representative 5-HT2A Receptor Agonist, R-DOI, Decreases Oxidative stress induced lipid peroxidation at low nM concentrations thereby reversing adverse processes that underlie development and progression of the Pathophysiology of Age-Associated Ocular and Neurodegenerative Diseases. ARPE cells were plated and mock treated or treated with the 5HT2A agonist R-DOI at 100 nM or 1 nM concentrations. Following an overnight incubation, live ARPE cells were labeled with an lipid peroxidation indicator dye BODIPY that changes fluorescence from red to green as it becomes oxidized. Cells were subsequently treated with 100 uM cumene hydroperoxide to induce lipid peroxidation and cellular oxidative stress and imaged in the red and green channels to assess the protective effects of 5HT2A agonists on lipid peroxidation. In the absence of 5HT2A agonists, there was a clear increase in green fluorescence present following treatment with cumene hydroperoxide.

mitofusin2 and TOMM20 = assay: Western blot of mitofusin2 and TOMM20 in ARPE-19 cells; details: all concentrations; 48 h post treatment; DMEM 7% FCS
Text: Representative 5-HT2A Receptor Agonist, R-DOI, Increases Mitochondrial Biogenesis and Quality by Inducing Mitochondrial Fusion at low nM concentrations thereby reversing adverse processes that underlie development and progression of the Pathophysiology of Age-Associated Ocular and Neurodegenerative Diseases. Consistent with the Maintenance of Functional Mitochondria and Mitochondrial Health, Serotonin 2A Receptor Agonism, Like with R-DOI, Increases Enzymatic BioMarkers of Mitochondrial Fusion (Mitofusin2) and Biogenesis (TOMM20). ARPE-19 cells were grown in DMEM 7% FCS containing the indicated concentrations of R-DOI. 48 h post treatment, cell samples were lysed and normalized prior to running western blots to evaluate mitofusin2 and TOMM20 protein expression. […] Mitofusion2 functions to regulate mitochondrial fusion. TOMM20 imports proteins through the outer membrane and is a marker of biogenesis and number.

COc1cc(C[C@@H](C)N)c(OC)cc1I (single isomer, unassigned) [R-DOI, R enantiomer 2,5-Dimethoxy-4-iodoamphetamine]
hyperglycemia induced phosphorylated MLC levels [1]: suppressed hyperglycemia induced phosphorylated MLC levels | cellular senescence (SA-β-Gal positive cells) (ARPE-19 cells): Decreases Basal Levels of Cellular Senescence | oxidative stress induced lipid peroxidation (ARPE cells): abrogated lipid peroxidation | Mitofusin 2 protein expression (mitofusin2 and TOMM20): increased expression of Mitofusin 2 | TOMM20 protein expression (mitochondrial biomass) (mitofusin2 and TOMM20): increased mitochondrial biomass (TOMM20)
